Here are results for seven compounds from patent US7868013B2, “Cycloalkyl substituted pyrimidinediamine compounds and their uses” (Rigel Pharmaceuticals, Inc., priority 2004, dated 2011).

A word on the IC50: it is the concentration that gives 50% inhibition.

Read-outs that look alike come from different tables or passages of the source. Where only a bound is given, the exact number is not on record here.

Holding throughout (format): cell-based
Assay [1] deals with MOLT3 (T lymphoblast acute lymphoblastic leukemia). In words: In vitro antiproliferation assay, MOLT3 cells. As for the experimental part: (§1) Certain compounds were tested against other cell types for their ability to inhibit proliferation in standard antiproliferation assays.
The test system of assay [2] is L1210 (mouse lymphocytic leukemia). In words: In vitro antiproliferation assay, L1210 cells. The protocol: as §1
Assay [3] deals with HELA (cervical adenocarcinoma). Briefly: In vitro antiproliferation assay, HELA cells. The protocol: as §1
For assay [4], the system named is ASPC-1 (pancreatic adenocarcinoma). In words: In vitro antiproliferation assay, ASPC-1 cells. The conditions noted are these: ASPC1. As for the experimental part: as §1
For a further assay, the system named is A549 (lung carcinoma). In words: In vitro antiproliferation assay, A549 cells (TABLE 1 6 point assay; TABLE 2). The protocol:
as §1

Assay [5] has as its system DU145 (prostate carcinoma). Briefly: In vitro antiproliferation assay, DU145 cells. As for the experimental part:
(§2) Cis racemic Compound 15, (1S,2R) enantiomeric Compound 15a and […] enantiomeric Compound 15b were also tested against DU145 (prostate carcinoma), HCT116 (colorectal carcinoma) and MiaPaCa-2 (pancreatic carcinoma) cell lines.
as §1

Assay [6] has as its system HL160 (promyeloblast promyelocytic leukemia). Briefly: In vitro antiproliferation assay, HL160 cells. The protocol:
as §1

The test system of assay [7] is SW620 (colorectal adenocarcinoma). In words: In vitro antiproliferation assay, SW620 cells. The protocol:
as §1

The test system of another assay is H7299. Briefly: In vitro antiproliferation assay, H7299 cells. The protocol:
as §1

In assay [8] the test system is H1155 (non-small cell lung carcinoma). Briefly: In vitro antiproliferation assay, H1155 cells. The conditions noted are these: H1155. The protocol: as §1
A further assay has as its system U2OS (bone osteosarcoma). Briefly: In vitro antiproliferation assay, U2OS cells. The conditions noted are these: U20S. The protocol:
as §1

Assay [9] deals with COLO 205 (colorectal adenocarcinoma). Briefly: In vitro antiproliferation assay, COLO 205 cells. The conditions noted are these: Colo205. As for the experimental part:
as §1

Assay [10] has as its system PC3 (prostate adenocarcinoma). Briefly: In vitro antiproliferation assay, PC3 cells. As for the experimental part:
as §1

Assay [11] has as its system THP-1 (monocyte acute monocytic leukemia). Briefly: In vitro antiproliferation assay, THP-1 cells. The protocol:
as §1

In assay [12] the test system is K562 (bone marrow chronic myelogenous leukemia). Briefly: In vitro antiproliferation assay, K562 cells. As for the experimental part: as §1
The subject of assay [13] is MOLT4 (T lymphoblast acute lymphoblastic leukemia). Briefly: In vitro antiproliferation assay, MOLT4 cells. The protocol:
as §1

In assay [14] the test system is MiaPaCa-2 (pancreatic carcinoma). Briefly: In vitro antiproliferation assay, MiaPaCa-2 cells. As for the experimental part:
as §2, §1

The subject of assay [15] is H1299 (non-small cell lung carcinoma). In words: In vitro antiproliferation assay, H1299 cells (TABLE 1 6 point assay; TABLE 2). The protocol: as §1
For assay [16], the system named is U937 (histiocytic lymphoma). Briefly: In vitro antiproliferation assay, U937 cells. The conditions noted are these: Homo sapiens, U-937. The protocol:
as §1

The target in a further assay is T1, Aurora kinase-B (Homo sapiens, UniProt Q96GD4).
T1 construct: endogenous in cells; host or cells: A549 cells
T1 sequence (Q96GD4 whole entry): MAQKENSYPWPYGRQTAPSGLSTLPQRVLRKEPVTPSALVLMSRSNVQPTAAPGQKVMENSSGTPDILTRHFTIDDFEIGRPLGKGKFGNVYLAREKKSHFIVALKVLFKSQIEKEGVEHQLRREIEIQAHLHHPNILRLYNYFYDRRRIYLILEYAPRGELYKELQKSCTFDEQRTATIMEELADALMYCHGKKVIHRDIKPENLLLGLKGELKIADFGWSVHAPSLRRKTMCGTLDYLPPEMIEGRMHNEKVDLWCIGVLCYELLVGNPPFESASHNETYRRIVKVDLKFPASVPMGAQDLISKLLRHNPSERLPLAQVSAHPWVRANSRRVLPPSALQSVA
In words: Functional cellular assay of Aurora kinase-B: phosphorylation of histone H3 in A549 cells. The protocol:
Enantiomers E1 and E2 (Compounds 60a and 60b, respectively) were tested for their ability to inhibit Aurora kinase-B in a functional cellular assay involving phosphorylation of its substrate, histone H3. For the assay, A549 cells were seeded into the wells of a microtiter tray (5000 cells/well in 100 μl F12K media) late in the afternoon on Day 1. The cells were grown overnight (37° C., 5% CO2) On Day 2, 50 μl nocodazole (1 μM in media) was added to each well, giving a final concentration of 333 nM. Cells were grown for an additional 18 hrs under the same conditions.
On Day 3, 50 μl aliguots of varying concentrations of test compound were added to the wells Test compounds were prepared by 2-fold serial dilution of a […] stock (in DMSO). The diluted compounds in DMSO were then further diluted 1:50 with media to yield a final solution containing 4× test compound, 98% media, 2% DMSO. After incubation, the media/test compound was washed and the cells fixed with 2% paraformaldehyde (in Dulbecco's phosphate buffered saline “DPBS”; 25 μl per well; […] incubation). […] The cells were then stained with a secondary antibody labeled with a fluorescent dye (secondary antibody donkey anti-mouse AlexFluor 488 (Invitrogen Molecular Probes; 1:2000) and DAPI (1:15,000 of 1 mg/ml stock) for 1 hr at room temperature, washed three times with DPBS (200 μl/well) and stored under DPBS (100 μl/well) at 4° C. until ready for analysis.
A Zeiss Axiovert S100 inverted fluorescent microscope with a Plan-NEOFLUAR 10× objective, a Hamamatsu Lightningcure 200 Mercury-Xenon light source and an Omega Optical XF57 quad filter was used for all data collection. […] Images were captured and analyzed in 12-bit format using segmentation and morphological routines contained in the Image Pro software package. Identified nuclei were counted and pixel data for each cell along with experimental conditions was stored in a database using MySQL 4.0.14. […]
For phospho-histone H3 analysis the data is converted to Facs files and analysed using FlowJo. […]

The subject of assay [17] is HCT116 (colorectal carcinoma). Briefly: In vitro antiproliferation assay, HCT116 cells. The conditions noted are these: Homo sapiens, HCT-116; HCT116 (colorectal carcinoma) cell line. As for the experimental part: as §2
Assay [18] concerns a variety of tumor cell types. In words: In vitro antiproliferation assays against a variety of tumor cell types (stereoisomer comparison). As for the experimental part: Moreover, it has been discovered that the enantiomer corresponding to the (1R,2R,3S,4S) diastereomer of structural formula (IVa) is largely responsible for the potency of the exo-exo cis racemate.
as §1

The mark [19] stands for this setting: Homo sapiens, A549, 6 point assay, A549 cells, read-out: IC50, A549 cells.
The mark [20] stands for this setting: Homo sapiens, DU-145, DU145, read-out: In Vitro IC50.
Where [21] appears, read: Homo sapiens, NCI-H1299, 6 point assay, H1299 cells, read-out: IC50, H1299 cells.
Where [22] appears, read: Homo sapiens, MIA PaCa-2, Miapaca2, read-out: In Vitro IC50.
Where [23] appears, read: Homo sapiens, DU-145, DU145 (prostate carcinoma) cell line, read-out: IC50.
Setting [24] is: Homo sapiens, MIA PaCa-2, MiaPaCa-2 (pancreatic carcinoma) cell line, read-out: IC50.

As to `Cc1cc(Nc2ncc(F)c(NC3C4C=CC(C4)C3C(N)=O)n2)ccc1N1CCN(C)CC1` (racemic) [Compound 60, 2-exo-3-exo racemic N4-(3-aminocarbonylbicyclo[2.2.1]hept-5-ene-2-yl)-5-fluoro-N2-[3-methyl-4-(4-methylpiperazin-1-yl)phenyl]-2,4-pyrimidinediamine], the IC50 in assay [1] was no more than 10 nM; in [2], no more than 1000 nM; in assay [3] (HELA) it was no more than 10 nM; in assay [4], no more than 20 nM; with A549 (lung carcinoma) (A549, read-out: In Vitro IC50), no more than 20 nM; in assay [5] (DU145, read-out: In Vitro IC50), no more than 20 nM. Moreover, the IC50 in [6] is no more than 10 nM; in assay [7], no more than 1000 nM; in the assay with H7299 it was no more than 20 nM; in assay [8], no more than 10 nM; in the assay with U2OS (bone osteosarcoma), no more than 20 nM; in assay [9], no more than 10 nM. Moreover, the IC50 in assay [10] is no more than 20 nM; in [11], no more than 1000 nM; in assay [12] it was no more than 1000 nM; in assay [13], no more than 10 nM; in assay [14] (Miapaca2, read-out: In Vitro IC50) it was no more than 10 nM.
In the case of `Cc1cc(Nc2ncc(F)c(NC3C4C=CC(C4)C3C(N)=O)n2)ccc1N1CCN(C)CC1` (racemic) [compound 221, Racemic-(2-exo, 3-exo)-N4-(3-aminocarbonylbicyclo[2.2.1]hept-5-en-2-yl)-5-fluoro-N2-[3-methyl-4-(4-methylpiparazin-1-yl)phenyl]-2,4-pyrimidinediamine], the IC50 in [1] (Homo sapiens, MOLT-3) is no more than 10 nM; in assay [2] (Mus musculus), no more than 1000 nM; in [3] (Homo sapiens, HeLa), no more than 10 nM; in assay [4] (Homo sapiens), no more than 20 nM; in the assay with A549 (lung carcinoma) (A549, read-out: In Vitro IC50), no more than 10 nM; in the assay on A549 (lung carcinoma) (setting [19]) it was no more than 100 nM. The IC50 is no more than 10 nM in assay [5] (setting [20]); no more than 10 nM in assay [6]; no more than 20 nM in assay [15] (H1299, read-out: In Vitro IC50); no more than 100 nM in [15] (setting [21]); no more than 20 nM in [7] (Homo sapiens, SW-620); no more than 20 nM in the assay with U2OS (bone osteosarcoma) (Homo sapiens, U2OS). The IC50 is no more than 10 nM in [16]; no more than 10 nM in assay [9] (Homo sapiens, COLO 205); no more than 20 nM in assay [11] (Homo sapiens); no more than 1000 nM in assay [12] (Homo sapiens); no more than 10 nM in assay [13] (Homo sapiens, MOLT-4); no more than 10 nM in assay [14] (setting [22]).
As to `Cc1cc(Nc2ncc(F)c(NC3C(C(N)=O)[C@H]4C=C[C@@H]3C4)n2)ccc1N1CCN(C)CC1` (stereo in doubt) [Compound 60b, (1S,2R,3S,4R)—N4-(3-Aminocarbonylbicyclo[2.2.1]hept-5-en-2-yl)-5-fluoro-N2-[3-methyl-4-(4-methylpiperazin-1-yl)phenyl]-2,4-pyrimidinediamine], the IC50 in [1] (Homo sapiens, MOLT-3) was greater than 1000 nM; in assay [2] (Mus musculus), greater than 1000 nM; in assay [3] (Homo sapiens, HeLa), greater than 1000 nM; in the assay on A549 (lung carcinoma) (setting [19]), 1000 to 10000 nM; with A549 (lung carcinoma) (Homo sapiens, A549, A549, read-out: In Vitro IC50), greater than 1000 nM; in assay [5] (setting [20]), no more than 1000 nM. The IC50 in [6] is greater than 1000 nM; in assay [15] (setting [21]) it was 1000 to 10000 nM; in assay [15] (Homo sapiens, NCI-H1299, H1299, read-out: In Vitro IC50), greater than 1000 nM; in [7] (Homo sapiens, SW-620) it was greater than 1000 nM; in the assay with H7299, greater than 1000 nM; in the assay on U2OS (bone osteosarcoma) (Homo sapiens, U2OS), no more than 1000 nM. Also, the IC50 in [16] is greater than 1000 nM; in assay [9] (Homo sapiens, COLO 205) it was greater than 1000 nM; at Aurora kinase-B (A549 cells, phospho-histone H3, read-out: IC50 of Aurora kinase-B inhibition) it was 2490 nM; in assay [10] (Homo sapiens, PC-3) it was greater than 1000 nM; in assay [11] (Homo sapiens), no more than 1000 nM; in [12] (Homo sapiens) it was greater than 1000 nM. Also, the IC50 in assay [13] (Homo sapiens, MOLT-4) was greater than 1000 nM; in assay [14] (setting [22]) it was greater than 1000 nM.
With `Cc1cc(Nc2ncc(F)c(NC3CCCC3C(N)=O)n2)ccc1N1CCN(C)CC1` (racemic) [Compound 15, Racemic-cis-N4-(2-Aminocarbonylcyclopent-1-yl)-5-fluoro-N2-[4-(4-methylpiperazin-1-yl)-3-methylphenyl]-2,4-pyrimidinediamine], the IC50 in assay [17] is less than 1000 nM; with A549 (lung carcinoma) (setting [19]), 100 to 1000 nM; in assay [5] (setting [23]), less than 1000 nM; in assay [15] (setting [21]), 100 to 1000 nM; in [14] (setting [24]) it was less than 1000 nM.
Turning to `Cc1cc(Nc2ncc(F)c(N[C@@H]3CCC[C@@H]3C(N)=O)n2)ccc1N1CCN(C)CC1` (stereo in doubt) [Compound 15b, (1R,2S)—N4-(2-Aminocarbonylcyclopent-1-yl)-5-fluoro-N2-[4-(4-methylpiperazin-1-yl)-3-methylphenyl]-2,4-pyrimidinediamine], the IC50 in assay [17] was less than 5000 nM; in the assay on A549 (lung carcinoma) (setting [19]), 1000 to 10000 nM; in [5] (setting [23]), less than 5000 nM; in [15] (setting [21]), 1000 to 10000 nM; in assay [14] (setting [24]) it was less than 5000 nM.
`Cc1cc(Nc2ncc(F)c(N[C@H]3CCC[C@H]3C(N)=O)n2)ccc1N1CCN(C)CC1` (stereo in doubt) [Compound 15a, (1S,2R)—N4-(2-Aminocarbonylcyclopent-1-yl)-5-fluoro-N2-[4-(4-methylpiperazin-1-yl)-3-methylphenyl]-2,4-pyrimidinediamine]: the IC50 in assay [17] is less than 1000 nM; in the assay on A549 (lung carcinoma) (setting [19]), 100 to 1000 nM; in [15] (setting [21]), 100 to 1000 nM; in assay [14] (setting [24]), less than 1000 nM.
Turning to `Cc1cc(Nc2ncc(F)c(NC3C4C=CC(C4)C3C(N)=O)n2)ccc1N1CCN(C)CC1` [(1R,2R,3S,4S) diastereomer, N4-(3-aminocarbonylbicyclo[2.2.1]hept-5-en-2-yl)-5-fluoro-N2-[3-methyl-4-(4-methylpiperazin-1-yl)phenyl]-2,4-pyrimidinediamine], on Aurora kinase-B (in words), the “Result in cell-based inhibition assays against Aurora kinase B compared to the (1S,2S,3R,4R) diastereomer” value is on record as “similarly superior results”. Besides, the “Potency relative to the endo-endo racemate” value in assay [18] ((1R,2R,3S,4S) diastereomer, more potent) is on record as 20-50 times. The “Potency relative to the (1S,2S,3R,4R) diastereomer” value in assay [18] (more potent) is recorded as “approximately 1000 fold”. Further, in assay [18] (range in words, same cell lines), the “IC50s when tested as isolated stereoisomers” value is reported as “nanomolar range”.
